Structures are written as SMILES. “Also recorded” adds a separate entry of the source.

As usually defined, the EC50 is the midpoint of the concentration-response curve.

The subject of data set [1] is granule cell layer of the dentate gyrus. As to the kind of experiment: In vivo neurogenesis (BrdU positive cell counts). The note with it: 0.5 mg/kg buspirone, 3.0 mg/kg melatonin or both, i.p., 1x per day for 28 days. Also noted: species or system rat. As for the experimental part:
BrdU was administered once daily between days 9 and 14 (100 mg/kg/day, i.p., n=12 per dose group). […] Data are presented as percent change in BrdU positive cells per cubic mm dentate gyrus.

Data set [2] concerns human neural stem cells (hNSCs). The experiment in a line: Neuronal differentiation of human neural stem cells (TUJ-1 staining). Format: cell-based. The note with it: agent alone; hNSC; data as % of neuronal positive control, basal media subtracted. The text has this: Mitogen-free test media with a positive control was used for neuronal differentiation, and basal media without growth factors served as a negative control.
Mitogen-free test media with a positive control for neuronal differentiation was used, and basal media without growth factors served as a negative control.
(§1) Human neural stem cells (hNSCs) were isolated and grown in monolayer culture, plated, treated with varying concentrations of buspirone in the presence or absence of the melatonin agonist melatonin, and stained with TUJ-1 antibody for the detection of neuronal differentiation or GFAP antibody for the detection of astrocyte differentiation, as described above. Mitogen-free test media with a positive control for neuronal differentiation was used along with basal media without growth factors as a negative control.
Human neural stem cells (hNSCs) were isolated and grown in monolayer culture, plated, treated with varying concentrations of a 5-HT3 antagonist and stained with TUJ-1 antibody, as described above. Mitogen-free test media with a positive control for neuronal differentiation was used along with basal media without growth factors as a negative control.
Human neural stem cells (hNSCs) were isolated and grown in monolayer culture, plated, treated with varying concentrations of a 5-HT4 agonist and stained with TUJ-1 antibody, as described above. Mitogen-free test media with a positive control for neuronal differentiation was used along with basal media without growth factors as a negative control.
The presence of synergy was determined by use of a combination index (CI). […] The CI is a quantitative measure of the nature of drug interactions, comparing the EC50's of two compounds, when each is assayed alone, to the EC50 of each compound when assayed in combination. The combination index (CI) is equal to the following formula: […]
where C1 and C2 are the concentrations of a first and a second compound, respectively, resulting in 50% activity in neuronal differentiation when assayed in combination; and IC1 and IC2 are the concentrations of each compound resulting in 50% activity when assayed independently.

A short description of data set [3]: Rat body weight during chronic dosing. The note with it: buspirone 0.5 and 5.0 mg/kg i.p., 1x per day for 28 days.
Data set [4] concerns Male F344 rats. As to the kind of experiment: Novel Object Recognition (NOR) cognition assay. The following applies: buspirone 0.5 and 5.0 mg/kg i.p., 1x per day for 28 days. Format: in vivo, rat. The text has this:
The apparatus consisted of an open field (45×45×50 cm high) made of polycarbonate. Triplicate copies were used of the objects to be discriminated. Care was taken to ensure that the pair of objects tested were made from the same material so that they could not be distinguished readily by olfactory cues although they had very different appearances.
Each test session consisted of two phases. In the initial familiarization phase, two identical objects (A1 and A2) were placed in the far corners of the box arena. A rat was then placed in the middle of the arena and allowed 15 minutes to explore both objects. Exploration of an object was defined as directing the nose to the object at a distance of less than 2 cm and/or touching it with the nose. After a delay of 48-hours the rat was re-introduced to the arena (“test phase”). The box now contained a third identical copy of the familiar object (A3) and a new object (B). These were placed in the same locations as the sample stimuli, whereby the position (left or right) of the novel object in the test phase was balanced between rats. For half the rats, object A was the sample and object B was the novel alternative. The test phase was 15 minutes in duration, with the first 30 seconds of object interaction used to determine preference scores. Any animal with less than 15 seconds of object exploration were excluded from analysis.

For data set [5], the system named is human neural stem cells (hNSCs). As to the kind of experiment: Astrocyte differentiation of hNSCs (GFAP staining). Format: cell-based. The protocol:
Experiments were carried out as described in Example 1, except the positive control for astrocyte differentiation contained mitogen-free test media with a positive control, and cells were stained with GFAP antibody.
Experiments were carried out as described in Example 2, except the positive control for astrocyte differentiation contained mitogen-free test media with a different positive control.
as §1

The test system of data set [6] is Male F344 rats. The experiment in a line: Novelty suppressed feeding (NSF) depression assay. Format: in vivo, rat. The note with it: 1x per day for 21 days. The protocol: Twenty-four hours prior to behavioral testing, all food is removed from the home cage. At the time of testing a single pellet is placed in the center of a novel arena. Animals are placed in the corner of the arena and latency to eat the pellet is recorded. […] Animals receive compound daily for 21 days and testing is performed on day 21. A decreased latency to eat the food pellet is indicative of both neurogenesis and antidepressant activity.
Twenty-four hours prior to behavioral testing, all food is removed from the home cage. At the time of testing a single pellet is placed in the center of a novel arena. Animals are placed in the corner of the arena and the latency (in time) to eat the pellet is recorded. […] Animals receive compound daily for 21 days and testing is performed on day 21. A decreased latency to eat the food pellet is indicative of both neurogenesis and antidepressant activity.

On to `O=C1CC2(CCCC2)CC(=O)N1CCCCN1CCN(c2ncccn2)CC1` [buspirone], for which the “BrdU positive cells per cubic mm dentate gyrus (percent change)” value in data set [1] is “did not significantly change the number of BrdU positive cells”. Besides, the EC50 is 9.4 µM in data set [2] and 5.7 µM in data set [5] (Homo sapiens, Neural stem cell, agent alone, hNSC). Also, in data set [3], the mean body weight result is given as “dose-dependent decrease in mean body weight”. Besides, the “preference for the novel object (visits, time spent)” value in the data set with Male F344 rats [4] was “did not increase preference for the novel object; also recorded: did not demonstrate a significant effect on cognition”. In data set [5] (percent of positive control, agent alone or in combination), the maximum astrocyte differentiation came out at 60%. Further, the “latency to eat the food pellet (percent baseline)” value with Male F344 rats [6] (0.5 mg/kg buspirone, 3.0 mg/kg melatonin or both, i.p.) is reported as “did not significantly reduce the latency to eat the food pellet”. For the same molecule, in the data set on Male F344 rats [6] (buspirone 0.5 and 5.0 mg/kg i.p.), the “latency to eat the food pellet” value is listed as “did not significantly reduce the latency to eat the food pellet; also recorded: did not demonstrate a significant effect on novelty suppressed feeding”.

The values are drawn from patent US7678808B2, “5 HT receptor mediated neurogenesis” (BrainCells, Inc., priority 2006, dated 2010).
